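Cultured in 96-well plates, cells were exposed to test compound for 48 hours across five concentrations. TGI marks complete inhibition of growth.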
What was measured:
Assay in all cases: inhibition of tumour cell growth, NCI panel, 48 h
[1] = system: 786-0 renal
[2] = system: A549 NSCLC
[3] = system: ACHN renal
[4] = system: CAKI-1 renal
[5] = system: CCRF-CEM leukemia
[6] = system: COLO 205 colon
[7] = system: DU-145 prostate
[8] = system: EKVX NSCLC
[9] = system: HCC-2998 colon
[10] = system: HCT-116 colon
[11] = system: HCT-15 colon
[12] = system: HL-60(TB) leukemia
[13] = system: HOP-62 NSCLC
[14] = system: HOP-92 NSCLC
[15] = system: HS 578T breast
[16] = system: HT29 colon
[17] = system: IGROV1 ovarian
[18] = system: K-562 leukemia
[19] = system: KM12 colon
[20] = system: LOX IMVI melanoma
[21] = system: M14 melanoma
[22] = system: MALME-3M melanoma
[23] = system: MCF7 breast
[24] = system: MDA-MB-231 breast
[25] = system: MDA-MB-435
[26] = system: MDA-N
[27] = system: MOLT-4 leukemia
[28] = system: NCI-H226 lung
[29] = system: NCI-H23 lung
[30] = system: NCI-H460 lung
[31] = system: NCI/ADR-RES ovarian
[32] = system: OVCAR-3 ovarian
[33] = system: OVCAR-4 ovarian
[34] = system: OVCAR-5 ovarian
[35] = system: OVCAR-8 ovarian
[36] = system: PC-3 prostate
[37] = system: RPMI-8226 leukemia
[38] = system: RXF 393 renal
[39] = system: SF-268 CNS
[40] = system: SF-295 CNS
[41] = system: SF-539 CNS
[42] = system: SK-MEL-2 melanoma
[43] = system: SK-MEL-28 melanoma
[44] = system: SK-MEL-5 melanoma
[45] = system: SK-OV-3 ovarian
[46] = system: SN12C renal
[47] = system: SNB-19 CNS
[48] = system: SNB-75 CNS
[49] = system: SR leukemia
[50] = system: SW-620 colon
[51] = system: T-47D breast
[52] = system: TK-10 renal
[53] = system: U251 CNS
[54] = system: UACC-257 melanoma
[55] = system: UACC-62 melanoma
[56] = system: UO-31 renal

CC(C)(C)OC(=O)CC(NC(=O)OC(C)(C)C)C(=O)N[C@@H]1CCCC[C@H]1C(=O)OCc1ccccc1 (stereo partly specified)
TGI [1]: > 100 µM
TGI [2]: 93.4 µM
TGI [3]: > 100 µM
TGI [4]: > 100 µM
TGI [5]: 83.2 µM
TGI [6]: 38.2 µM
TGI [7]: 99.8 µM
TGI [8]: > 100 µM
TGI [9]: 64.7 µM
TGI [10]: 52.5 µM
TGI [11]: 39.4 µM
TGI [12]: 68.9 µM
TGI [13]: > 100 µM
TGI [14]: > 100 µM
TGI [15]: 48 µM
TGI [16]: 59.1 µM
TGI [17]: > 100 µM
TGI [18]: > 100 µM
TGI [19]: > 100 µM
TGI [20]: > 100 µM
TGI [21]: > 100 µM
TGI [22]: > 100 µM
TGI [23]: 85.5 µM
TGI [24]: > 100 µM
TGI [25]: 92.2 µM
TGI [26]: > 100 µM
TGI [27]: 89.1 µM
TGI [28]: 60.3 µM
TGI [29]: 85.3 µM
TGI [30]: > 100 µM
TGI [31]: > 100 µM
TGI [32]: > 100 µM
TGI [33]: > 100 µM
TGI [34]: > 100 µM
TGI [35]: > 100 µM
TGI [36]: > 100 µM
TGI [37]: 95.4 µM
TGI [38]: > 100 µM
TGI [39]: > 100 µM
TGI [40]: 70.2 µM
TGI [41]: 64 µM
TGI [42]: 61.1 µM
TGI [43]: > 100 µM
TGI [44]: 24.5 µM
TGI [45]: 65 µM
TGI [46]: 48.7 µM
TGI [47]: 69.3 µM
TGI [48]: > 100 µM
TGI [49]: > 100 µM
TGI [50]: > 100 µM
TGI [51]: 59.3 µM
TGI [52]: 79.6 µM
TGI [53]: 61.4 µM
TGI [54]: 89.4 µM
TGI [55]: 60.8 µM
TGI [56]: 53.8 µM

From PubChem BioAssay (NCI)
